Results on 16 molecules are retold here after patent publication US8134010B2, “Thiazole-based nitric oxide donors having aryl substituent(s) and uses thereof” (priority 2004, dated 2012).

For experiment [1], the system named is c-GMP in slices of thoracic aorta of rats. The experiment can be described thus: Cyclic-GMP measurement in aortic rat tissue (radioimmunoassay). The experiment is classed as cell-based. The conditions noted are these: for accumulation of cyclic-GMP as compared with GTN: isolated rat aorta, radioimmunoassay; for cGMP Post-infusion: post-infusion (repeated treatment). The method, then:
GTN (10^−6 M) was added to the chamber and, 1 minute after exposure to the drug, rings (usually 3-5) were taken, wrapped with aluminum foil and immediately frozen in liquid nitrogen for storage. Control sample group was treated with the vehicle solution only. At the time of analysis, rings were thawed, blotted over a dry gauzed and weighted. A known weight of tissue was homogenized in 2 ml ice-cold modified Hank's balanced salt solution containing (in gram/liter) NaCl 8; KCl 0.4; glucose 1; KH2PO4 0.06; Na2HPO4 0.047; Phenol red 0.017 and further containing 25 mM EDTA (disodium salt). The homogenate was centrifuged at 4000 g (force units) for 10 minutes at 2-4° C. and the supernatant was thereafter transferred into fresh pre-cooled test tube containing 1 ml of acetonitrile. The tubes were vortex mixed for a few seconds and subsequently centrifuged at 4000 g for 5 minutes at 2-4° C., to remove the precipitated protein. Each supernatant was transferred into a clean test tube and evaporated to dryness under a stream of nitrogen at 55° C. The dry residue was reconstituted with 10 volumes of Tris-EDTA buffer pH 7.5 (0.05 M Tris containing 4 mM EDTA). Aliquots of 100 μl of the reconstituted solution in duplicate were used for c-GMP measurements using Amersham RIA kit, as is described in Haj-Yehia & Benet [Pharmacology, 1995, 273, 1, pp. 94-100]. Standard curves were plotted with six concentrations (0, 0.5, 1, 2, 4 and 8 pmoles of c-GMP per tube).
The NO-tolerance effect of GTN and NO-donor compounds according to the present invention was measured by following the production of c-GMP in slices of thoracic aorta of rats. Thus, the production of c-GMP was measured as described in the methods section above for the reference NO-donor compound GTN, and for the NO-donors of the present invention Pet-2, Pet-3, Pet-7, Pet-8, Pet-10, Pet-12, Pet-24, Pet-59, Pet-106, Pet-107, Pet-120, Pet-147, Pet-149, Pet-152, Pet-154 and Pet-155.

Another experiment concerns isolated rat aorta. Briefly: In vitro induction of tolerance to NO releasing compounds (vasorelaxation of pre-exposed aortic rings). The experiment is classed as cell-based. Conditions: rings pre-treated with epinephrine and then with 0.44 mM of the same compound. The method, then:
Aortic rings were prepared as described hereinabove, and were exposed to 0.44 mM GTN (vehicle was water:ethanol:propyleneglycol at proportional ratio of 1:1:1) for 1 hour before CCRC construction, to thereby induce tolerance to nitroglycerine. At the end of the tolerance induction period, rings were thrice washed with the path buffer (Krebs-bicrbonate) every 15 minutes for the following hour and then CCRC for vasorelaxation on GTN-induced tolerance rings were constructed for GTN (pretreated versus untreated rings, FIG. 15), in order to verify the ability to induce and measure GTN tolerance induction in vitro
Attempted induction of tolerance to the NO-donating compounds of the present invention was performed under the same conditions as for GTN. Thus, in an exemplary experiment, rings were exposed to 0.44 mM solution of Pet-3 in the attempt to induce tolerance for Pet-3. CCRC were then measured for the vasorelaxing effect of Pet-3 on a group of rings which were pre-exposed to Pet-3 as to induce tolerance to Pet-3, and for an untreated control group. The above protocol was repeated with Pet-2, Pet-7, Pet-8, Pet-12, Pet-24, Pet-43, Pet-149 and Pet-152.

The subject of experiment [2] is hypertensive Sprague-Dawley male rats. The experiment can be described thus: Hypotensive effects: mean arterial pressure during intravenous bolus doses. The experiment is classed as in vivo, rat. Conditions: for activity as hypotensive agents (MAP): rats given phenylephrine. The method, then:
Mean arterial pressure (MAP) was monitored and determined during bolus infusion of Pet-2, Pet-3, Pet-7, Pet-8, Pet-12 and Pet-13. Briefly, polyethylene catheters (PE50) were inserted into the carotid artery and into the jugular vein of anesthetized hypertensive Sprague-Dawley male rats (200-300 grams). A blood pressure recorder was placed within the carotid artery. Phenylephrine (0.1 mg) was then injected and the mean arterial blood pressure (MABP) was monitored continuously until a stable baseline was reached. The hypotensive effects of intravenous (iv) bolus doses (0.1 mg of each tested compound) administered intravenously at the jugular vein in minimal volume of vehicle (0.2 ml per dose) were evaluated. Five minutes were allowed between each dose, during which the maximal decrease in MAP was recorded and a dose-response graph comparing the hypotensive effect of the compounds was constructed.

The subject of experiment [3] is cyclic-GMP in isolated aorta of rats. The experiment can be described thus: Induction of in vivo nitrate tolerance (cGMP in isolated aorta of rats pre-treated in vivo). Also noted: species or system rat. The conditions noted are these: rats pre-treated in vivo with the same compound. The method, then: For c-GMP levels and tolerance development, the rat's thoracic aorta was isolated after exposure to the tested compound in vivo, and measured as described above in the in vitro assays.
Male Sprague Dawley rats (220 to 250 grams) were housed under constant temperature and humidity conditions. Light was maintained at a 12/12 light dark cycle. Except for 12 hours before the experiment, when food fasting was initiated, all rats had free access to standard rat pellet diet and tap water. The animals were anesthetized by intraperitoneal injection of ketamine and xylazine combination (50 and 10 milligram per kilogram, respectively). […] The catheters were filled with normal saline solution containing 1000 IU/ml of heparin and plugged with a metal pin. Catheters were externalized to the back of the neck region and secured by a polyester felt disk.
After implantation, the rats were individually housed until they regained their preoperative weight and appeared healthy (3 to 4 days post-operation). At this time point (day 0), an osmotic mini-pump (Alza Corp., Palo Alto, Calif.) delivering constant volume (10 μl/hour) of vehicle or drug was connected to one of the intravenous catheters.
For inducing tolerance to the tested NO-donor according to the present invention, the animals received 200 μg/hour of the tested compound for 16 hours (short-term-induced tolerance). A similar number of animals were processed by the same surgical procedure and received the vehicle alone (10 μl/hour of a solution consisting of 30% ethanol and 30% propylene glycol in sterile distilled water for injection).
At the end of the infusion periods used for the development of tolerance (16 hour), the rats were anesthetized as described above, the two catheters were externalized and the delivering catheters were disconnected from the mini-pump. The abdomen was opened by midline incision and the thoracic aorta were isolated, washed and cleaned from the surrounding tissues. […]

Entries after “also recorded” stand apart in the source; their conditions may differ.

As for `CCNc1nc(C)c(CCO[N+](=O)[O-])s1` [Pet-147, Ethyl-[4-methyl-5-(2-nitrooxy-ethyl)-thiazol-2-yl]-amine], in experiment [1], the “accumulation of cyclic-GMP as compared with GTN” value (“accumulation … compared with GTN” for short) is listed as “increased levels of cGMP”. Take `CNc1cncc(-c2nc(C)c(CCO[N+](=O)[O-])s2)n1` [Pet-24, Methyl-{6-[4-methyl-5-(2-nitrooxy-ethyl)-thiazol-2-yl]-pyrazin-2-yl}-amine]: the “accumulation … compared with GTN” value in experiment [1] is “increased levels of cGMP”. Moreover, in the experiment on isolated rat aorta, the “tolerance induction in vitro (vasorelaxation, pre-treated versus control rings)” value is on record as “absence of tolerance induction”. Turning to `Cc1nc(NC(=O)[C@@H](C)c2ccc(CC(C)C)cc2)sc1CCO[N+](=O)[O-]` (stereo in doubt) [Pet-152, 2-(4-Isobutyl-phenyl)-N-[4-methyl-5-(2-nitrooxy-ethyl)-thiazol-2-yl]-propionamide], in experiment [1], the “accumulation … compared with GTN” value is listed as “increased levels of cGMP”. Take `Cc1nc(N(C)C)sc1CCO[N+](=O)[O-]` [Pet-7, Dimethyl-[4-methyl-5-(2-nitrooxy-ethyl)-thiazol-2-yl]-amine]: the “accumulation … compared with GTN” value in experiment [1] is reported as “increased levels of cGMP”. In addition, the “activity as hypotensive agents (MAP)” value in experiment [2] is reported as “high activity”. The “tolerance induction in vitro (vasorelaxation, pre-treated versus control rings)” value with isolated rat aorta is reported as “absence of tolerance induction”.

For `O=[N+]([O-])OCC(CO[N+](=O)[O-])O[N+](=O)[O-]` [GTN, glyceryl trinitrate, reference compound], the “c-GMP level following a repeated treatment” value in experiment [1] (rat thoracic aorta) is “significantly reduced”. The “hypotensive effect on MAP following successive administrations” value in experiment [2] (successive doses) is given as “attenuation in its effect on MAP”. In addition, the “tolerance induction by cyclic-GMP accumulation in aorta of rats pre-treated in vivo” value in experiment [3] is recorded as “tolerance inducing effect; also recorded: decreased”. Also, the “tolerance induction in vitro (vasorelaxation, pre-treated versus control rings)” value with isolated rat aorta is recorded as “tolerance inducement caused by treatment with GTN; also recorded: causing the emergence of tolerance; also recorded: tolerance induced by treatment with GTN”.

Regarding `Cc1nc(-c2ccc(C(F)(F)F)cc2)sc1CCO[N+](=O)[O-]` [Pet-59, 4-Methyl-5-(2-nitrooxy-ethyl)-2-(4-trifluoromethyl-phenyl)-thiazole], the “accumulation … compared with GTN” value in experiment [1] was “increased levels of cGMP”. On to `Cc1nc(-c2ccccc2)sc1CCO[N+](=O)[O-]` [Pet-8, 4-Methyl-5-(2-nitrooxy-ethyl)-2-phenyl-thiazole], for which the “accumulation … compared with GTN” value in experiment [1] is recorded as “increased levels of cGMP”. For the same molecule, the “activity as hypotensive agents (MAP)” value in experiment [2] was “high activity”. `Cc1nc(Nc2nc(C)c(CCO[N+](=O)[O-])s2)sc1CCO[N+](=O)[O-]` [Pet-43, Bis-[4-methyl-5-(2-nitrooxy-ethyl)-thiazol-2-yl]-amine]: in the experiment on isolated rat aorta, the “tolerance induction in vitro (vasorelaxation, pre-treated versus control rings)” value is recorded as “absence of tolerance induction”.

Turning to `Cc1nc(N)sc1CCO[N+](=O)[O-]` [Pet-10, 4-methyl-5-(2-nitrooxy-ethyl)-thiazole-2-ylamine], the “accumulation … compared with GTN” value in experiment [1] was “increased levels of cGMP”. Still for that read-out and setting: in the case of `C=CCNc1nc(C)c(CCO[N+](=O)[O-])s1` [Pet-155, allyl-[4-methyl-5-(2-nitrooxy-ethyl)-thiazol-2-yl]-amine] it was “increased levels of cGMP”; in that of `Cc1nc(NC(=O)c2cccnc2)sc1CCO[N+](=O)[O-]` [Pet-154, N-[4-methyl-5-(2-nitrooxy-ethyl)-thiazol-2-yl]-nicotinamide], “increased levels of cGMP”. For `CC(=O)Nc1ccc(-c2nc(C)c(CCO[N+](=O)[O-])s2)cc1` [Pet-107, N-{4-[4-Methyl-5-(2-nitrooxy-ethyl)-thiazol-2-yl]-phenyl}-acetamide], in experiment [1], the “accumulation … compared with GTN” value is “increased levels of cGMP”. Further, the “cGMP Post-infusion” value in experiment [1] (rat thoracic aorta) is given as 125 ± 10 pmol/g tissue. In the experiment with isolated rat aorta, the “tolerance induction in vitro (vasorelaxation, pre-treated versus control rings)” value is on record as “absence of tolerance induction”. `Cc1nc(C)c(CCO[N+](=O)[O-])s1` [Pet-3, 2,4-Dimethyl-5-(2-nitrooxy-ethyl)-thiazole]: the “accumulation … compared with GTN” value in experiment [1] is on record as “increased levels of cGMP”. Also, the “activity as hypotensive agents (MAP)” value in experiment [2] is “high activity”. Moreover, the “tolerance induction in vitro (vasorelaxation, pre-treated versus control rings)” value in the experiment with isolated rat aorta was “absence of tolerance induction”. For the molecule `Cc1nc(Nc2cccc3ccccc23)sc1CCO[N+](=O)[O-]` [Pet-149, [4-Methyl-5-(2-nitrooxy-ethyl)-thiazol-2-yl]-naphthalen-1-yl-amine], the “accumulation … compared with GTN” value in experiment [1] was “increased levels of cGMP”. The “tolerance induction in vitro (vasorelaxation, pre-treated versus control rings)” value in the experiment on isolated rat aorta is given as “absence of tolerance induction”.

Take `Cc1nc(-c2ccc(N)cc2)sc1CCO[N+](=O)[O-]` [Pet-106, 4-[4-Methyl-5-(2-nitrooxy-ethyl)-thiazol-2-yl]-phenylamine]: the “accumulation … compared with GTN” value in experiment [1] is given as “increased levels of cGMP”. The “cGMP Post-infusion” value in experiment [1] (rat thoracic aorta) was 120 ± 12 pmol/g tissue. Besides, the “tolerance induction in vitro (vasorelaxation, pre-treated versus control rings)” value with isolated rat aorta is “absence of tolerance induction”. Regarding `Cc1nc(CCCCc2nc(C)c(CCO[N+](=O)[O-])s2)sc1CCO[N+](=O)[O-]` [Pet-13], the “activity as hypotensive agents (MAP)” value in experiment [2] is listed as “high activity”.
